Laboratory results published in patent US20040048830A1, “Use of cortisol-sequestering agents for the treatment of hypercortisolaemia related disorders” (priority 2000, published 2004).
Like-named read-outs stand apart in the source and are kept apart here. Marks after values point to notes of the source that are not given here.

Key:
[1] = UV titration of cyclodextrin into cortisol (absorbance at 246 nm); type: binding; details: 1:1 cortisol:γ-cyclodextrin complex
Description: UV-visible spectroscopy was used to monitor the complex formation between cortisol and a library of cyclodextrin derivatives. The UV spectrum of cortisol contains an absorption band having a maximum at 246 nm. The intensity of the UV line at 246 nm decreases upon complexation of cortisol by addition of a cyclodextrin host molecule. The decrease in the absorbance of an aqueous solution of the guest molecule (cortisol) upon addition of a typical host molecule (like a cyclodextrin derivative) is taken as evidence that the guest molecule has moved from the polar aqueous environment to the usually less polar environment of the interior of the host molecule. The methodology is well established in the field of supramolecular chemistry (Tsukube, H. et al. In Comprehensive Supramolecular Chemistry: Physical Methods in Supramolecular Chemistry. Davies J E D, Ripmeester J A, (Eds) Elsevier, Oxford, 1996: Vol 8, pp 425-483).
The association constants for complex formation are determined by performing a titration of cyclodextrin into cortisol and recording the UV spectrum as a function of the cyclodextrin/steroid ratio. The change in absorption of cortisol at 246 nm (Δ A) upon stepwise addition of cyclodextrin is recorded. The best fit line to the data give Ka for the cortisol-cyclodextrin complex (Liu Y, Li, B, You C-C, Wada, T, Inoue Y. J. Org. Chem., 2001, 66, 225-232). […]

[2] = Isothermal titration calorimetry (microcalorimetry) of cortisol complex; type: binding; details: 1:1 cortisol complex, microcalorimetry / ITC
Description: The interaction between a sequestering agent and cortisol can be analyzed by physical methods such as nuclear magnetic resonance spectroscopy (nmr) (Fielding, L.: Tetrahedron, 56 (34), 6151-6170, 2000) and microcalorimetry (Stoedeman M. and Wadsoe I.: Pure Appl. Chem., 67(7), 1059-68, 1995). These techniques also allow one to establish the selectivity of the binding to cortisol in comparison with the other endogenous steroidal compounds.
The association constants for complex formation are determined by performing a titration of cyclodextrin into cortisol and recording the UV spectrum as a function of the cyclodextrin/steroid ratio. The change in absorption of cortisol at 246 nm (Δ A) upon stepwise addition of cyclodextrin is recorded. The best fit line to the data give Ka for the cortisol-cyclodextrin complex (Liu Y, Li, B, You C-C, Wada, T, Inoue Y. J. Org. Chem., 2001, 66, 225-232). The UV methodology provides a fairly good estimate of the association constant when this constant is below 10^5 M^−1. The results used for the determination of the association constant for the binding of cortisol to γ-cyclodextrin, β-cyclodextrin and to 2 γ-cyclodextrin derivatives are shown in FIG. 1. […] This is because the chromophore in cortisol is relatively weak and instrument signal to noise issues prevented the preparation of sufficiently dilute solutions. […] The high cortisol binding constant for these γ-cyclodextrin derivatives indicates these derivatives to be potentially very active cortisol sequestering agents. An alternative, but more laborious, method for the determination of the cortisol association constant is by isothermal titration calorimetry (see Wiseman et al. […], 131-137), which can be used to determine the high Ka's more accurately.

[3] = 1:1 cyclodextrin:cortisol complex in water, reported values; cited from earlier work
[4] = Urinary excretion of endogenous cortisol in the guinea pig; type: in vivo; details: iv 5 mg/250 g
Method: In guinea piogs cortisol is endogenously produced, the basal level of which is approximately 120-150 ng/ml in plasma.

[5] = Urinary excretion of exogenous cortisol in the rat; type: in vivo, Lister hooded rats
Method: Two groups of four rats (Lister hooded rats, 300-320 g) were administered (intravenously) either […] of cortisol alone (Group I) or cortisol followed after 15 minutes by 6-per-deoxy-6-per-(2,3-dihydroxypropylthio)-γ-cyclodextrin (Org 26276) as a single intravenous dose of 20 mg/kg (Group II). Each rat was placed in a metabolic cage for the collection of urine. Urine samples were collected for the first 5 hours and thereafter for the remainder of 24 hours The collected urine samples were subjected to HPLC-MS (high pressure liquid chromatograpy on a Phenomenex Luna (50×2 mm; […]) column coupled to a PE Sciex API 3000 Mass Spectrometer). The limit of quantitation for cortisol in urine was 2.5 ng/ml and 10 ng/ml in plasma.

O=C(O)CCSC[C@H]1O[C@@H]2O[C@H]3[C@H](O)[C@@H](O)[C@@H](O[C@H]4[C@H](O)[C@@H](O)[C@@H](O[C@H]5[C@H](O)[C@@H](O)[C@@H](O[C@H]6[C@H](O)[C@@H](O)[C@@H](O[C@H]7[C@H](O)[C@@H](O)[C@@H](O[C@H]8[C@H](O)[C@@H](O)[C@@H](O[C@H]9[C@H](O)[C@@H](O)[C@@H](O[C@H]1[C@H](O)[C@H]2O)O[C@@H]9CSCCC(=O)O)O[C@@H]8CSCCC(=O)O)O[C@@H]7CSCCC(=O)O)O[C@@H]6CSCCC(=O)O)O[C@@H]5CSCCC(=O)O)O[C@@H]4CSCCC(=O)O)O[C@@H]3CSCCC(=O)O [6-per-deoxy-6-per-(2-carboxyethyl)thio-γ-cyclodextrin]
Ka [1]: ~30,000 M^−1
Association Constant (Ka) [2]: ~40,000 M^−1
Association Constant (Ka) ([2]; listed as Per-6-deoxy-per-6-(2-carboxyethyl)thio-γ-cyclodextrin): 40000* M^−1

Hydroxypropyl-β-CD
Association Constant (Ka) [3]: 900 to 1000 M⁻¹

OC[C@H]1O[C@@H]2O[C@H]3[C@H](O)[C@@H](O)[C@@H](O[C@H]4[C@H](O)[C@@H](O)[C@@H](O[C@H]5[C@H](O)[C@@H](O)[C@@H](O[C@H]6[C@H](O)[C@@H](O)[C@@H](O[C@H]7[C@H](O)[C@@H](O)[C@@H](O[C@H]8[C@H](O)[C@@H](O)[C@@H](O[C@H]9[C@H](O)[C@@H](O)[C@@H](O[C@H]1[C@H](O)[C@H]2O)O[C@@H]9CO)O[C@@H]8CO)O[C@@H]7CO)O[C@@H]6CO)O[C@@H]5CO)O[C@@H]4CO)O[C@@H]3CO [γ-CD, γ-cyclodextrin]
Association Constant (Ka) [3]: 2240 M⁻¹

Per-2,6-methyl-β-CD
Association Constant (Ka) [3]: 5910 M⁻¹

OC[C@H]1O[C@@H]2O[C@H]3[C@H](O)[C@@H](O)[C@@H](O[C@H]4[C@H](O)[C@@H](O)[C@@H](O[C@H]5[C@H](O)[C@@H](O)[C@@H](O[C@H]6[C@H](O)[C@@H](O)[C@@H](O[C@H]7[C@H](O)[C@@H](O)[C@@H](O[C@H]1[C@H](O)[C@H]2O)O[C@@H]7CO)O[C@@H]6CO)O[C@@H]5CO)O[C@@H]4CO)O[C@@H]3CO [α-CD]
Association Constant (Ka) [3]: 57 M⁻¹

Per-6-acetyl-β-CD
Association Constant (Ka) [3]: 3920 M⁻¹

O=C(O)c1ccc(SCC2OC3OC4C(CSc5ccc(C(=O)O)cc5)OC(OC5C(CSc6ccc(C(=O)O)cc6)OC(OC6C(CSc7ccc(C(=O)O)cc7)OC(OC7C(CSc8ccc(C(=O)O)cc8)OC(OC8C(CSc9ccc(C(=O)O)cc9)OC(OC9C(CSc%10ccc(C(=O)O)cc%10)OC(OC%10C(CSc%11ccc(C(=O)O)cc%11)OC(OC2C(O)C3O)C(O)C%10O)C(O)C9O)C(O)C8O)C(O)C7O)C(O)C6O)C(O)C5O)C(O)C4O)cc1 (centres unmarked) [6-per-deoxy-6-per-(4-carboxyphenyl)thio-γ-cyclodextrin]
Association Constant (Ka) [2]: ˜80,000^b M^−1

6-per-deoxy-6-per-(2,3-dihydroxypropylthio)-γ-cyclodextrin [Org 26276]
increase of amount of urinary cortisol excreted during 24 hours compared to the control group [4]: 3 fold
Ka ([1]; listed as Example 1): >100,000^a M^−1
enhancement of excretion of cortisol compared to the control group ([5]; 20 mg/kg iv, versus group that received cortisol alone): approximately 10 fold
mean cortisol level in the urine ([5]; iv cortisol followed after 15 minutes by 20 mg/kg iv, urine collected in the first 5 hours): 111 ± 78 ng/mL

OC[C@H]1O[C@@H]2O[C@H]3[C@H](O)[C@@H](O)[C@@H](O[C@H]4[C@H](O)[C@@H](O)[C@@H](O[C@H]5[C@H](O)[C@@H](O)[C@@H](O[C@H]6[C@H](O)[C@@H](O)[C@@H](O[C@H]7[C@H](O)[C@@H](O)[C@@H](O[C@H]8[C@H](O)[C@@H](O)[C@@H](O[C@H]1[C@H](O)[C@H]2O)O[C@@H]8CO)O[C@@H]7CO)O[C@@H]6CO)O[C@@H]5CO)O[C@@H]4CO)O[C@@H]3CO [β-CD, β-cyclodextrin]
Association Constant (Ka) [3]: 1720 to 3000 M⁻¹
